Source: patent US4472400A, “Triazoloquinazolones having antihistaminic and bronchospasmolytic activity” (Roussel Uclaf, priority 1981, dated 1984)
Read-outs that look alike come from different tables or passages of the source.

How the values were obtained:
[1] = tested on: histamine-induced bronchoconstriction; assay: Effects on histamine-induced bronchoconstriction in anaesthetised guinea pigs (KRG); type: in vivo, guinea pig (male Dunkin Hartley); details: Cavia porcellus, iv, read-out: KRG ED50 (effective dose required to reduce the histamine-induced constriction in lung air volume by 50%)
Method: (A) Effects on histamine-induced bronchoconstriction in anaesthetised guinea pigs (KRG)
Male Dunkin Hartley guinea-pigs weighing 350-650 grams were anaesthetised with urethane (25% w/v solution in distilled water at 7.0 ml/kg i.p). […] The animals were ventilated with a ventilatory pump, stroke volume of 8 ml and frequency of 52 to maintain a lung inflation pressure of 10 cm of H2 O. Blood pressure was measured via a cannula in the right carotid artery connected to a Statham blood pressure transducer and a Devices M2 recorder. The test compounds were administered via the cannulated left jugular vein and washed in with 0.1 ml of 0.9% w/w NaCl in distilled water. The test product was administered immediately before the histamine which was used as the agonist.
Respiratory changes were recorded via a differential transducer connected to an SE 905 transducer/converter which in turn was connected to a Devices M2 recorder.

[2] = tested on: histamine induced resistance change; assay: Measurement of Pulmonary Compliance and Resistance (RMG), histamine induced resistance change; type: in vivo, guinea pig (male Dunkin Hartley); details: Cavia porcellus, iv; anaesthetised guinea-pigs (Hypnorm/Valium), gallamine pre-treated; compound via right jugular vein; forced oscillation; read-out: RMG ED50 (effective dose required to reduce the histamine induced resistance change by 50%)
Method: (B) Measurement of Pulmonary Compliance and Resistance (RMG)
Male Dunkin Hartley guinea-pigs weighing between 400 and 650 g were anaesthetised with a combination of Hypnorm (1 ml/kg i.m.) and Valium (5 mg/kg i.p.). The trachea was cannulated and cannulae were inserted into the right jugular vein for the administration of compounds and left carotid artery for blood pressure measurement.
The animals were ventilated at a tidal volume of 6-8 ml and 10-12 cmH2 0 distension pressure was obtained. The respiratory rate was adjusted to 40-50/min. The animals were pre-treated with gallamine triethiodide (4 mg/kg i.v.) to maintain paralysis of respiratory muscles. Oxygen enrichment was applied to the inspiratory limb of the ventilator.
Respiratory resistance was measured by forced oscillation (Clay and Hughes 1980). Sinusodal wave forms of pressure were divided by flow at constant lung volumes to detect resistance changes. Sine wave production was achieved by a loudspeaker driven at 6-7 Hz through a pressure transducer, pneumotachograph and differential pressure transducer to detect pressure and flow contributions of the wave form. […] Drugs and analysis of activity were as described for the Konzett Rossler technique. Ref. Clay, T. P. and Hughes, J. M. B. (1980) J. Physiol. 308 427-437. The results given in Table V show the effective dose of each of the test compounds required to reduce the histamine induced resistance change by 50%.

[3] = anaesthetised guinea-pigs (urethane), test compound i.v. (jugular vein) immediately before histamine

| Structure (SMILES) | ED50 [1, 3] [mg/kg] | ED50 [2] [mg/kg] | ED50 [1] [mg/kg] |
| --- | --- | --- | --- |
| CCCn1c(=O)c2ccccc2n2c(CN3CCCCC3)nnc12.Cl.O [Example 1, 1-Piperidinomethyl-4-n-propyl[1,2,4]triazolo[4,3-a]quinazolin-5(4H)-one hydrochloride, monohydrate] | 0.12 |  |  |
| CCCn1c(=O)c2ccccc2n2c(CN(CC)CC)nnc12 [Example 2] |  | 0.5 |  |
| CCCn1c(=O)c2ccccc2n2c(CN3CCN(C)CC3)nnc12 [Example 3] | 5.28 |  |  |
| CCCn1c(=O)c2ccccc2n2c(CN3CCCC3)nnc12 [Example 4] | 2 |  |  |
| CCCn1c(=O)c2ccccc2n2c(CN3CCCCCC3)nnc12 [Example 5] | 0.096 | 0.3 |  |
| CCCn1c(=O)c2ccccc2n2c(CN3CCN(c4ccccc4)CC3)nnc12 [Example 6] | 5 |  |  |
| CCCn1c(=O)c2ccccc2n2c(CN3CC4CCC(CC4)C3)nnc12 [Example 7] |  |  | 0.33 |
| CCCn1c(=O)c2ccccc2n2c(CN3CC(C)CC(C)C3)nnc12 (centres unmarked) [Example 8] | 1 |  |  |
| CCCNCc1nnc2n(CCC)c(=O)c3ccccc3n12 [Example 10] | 1.97 |  |  |
| CCCn1c(=O)c2ccccc2n2c(CNC3CCCCC3)nnc12 [Example 11] | 1.8 |  |  |
| CCCCNCc1nnc2n(CCC)c(=O)c3ccccc3n12 [Example 12] | 1.3 |  |  |
| CCCCN(CCCC)Cc1nnc2n(CCC)c(=O)c3ccccc3n12 [Example 14] | 2.9 |  |  |
| CC(C)n1c(=O)c2ccccc2n2c(CN3CCCCC3)nnc12 [Example 19] | 0.185 |  |  |
| CC(C)n1c(=O)c2ccccc2n2c(CN3CCCCCC3)nnc12 [Example 20] | 0.8 |  |  |
| CCCCn1c(=O)c2ccccc2n2c(CN3CCCCC3)nnc12 [Example 21, 1-piperidinomethyl-4-n-butyl[1,2,4]triazolo[4,3-a]quinazolin-5(4H)-one] | 0.11 | 0.15 |  |
| CCCCn1c(=O)c2ccccc2n2c(CN3CCCCCC3)nnc12 [Example 22, 1-(2,3,4,5,6,7,-hexahydroazepino)methyl-4-n-butyl[1,2,4]triazolo[4,3-a] quinazolin-5(4H)-one] | 0.84 |  |  |
| Cn1c(=O)c2ccccc2n2c(CN3CCCCC3)nnc12 [Example 23] | > 1 | 1 |  |
| Cn1c(=O)c2ccccc2n2c(CN3CCOCC3)nnc12 [Example 24] | 2.76 | 1.8 |  |
| CCOC(=O)N1CCN(Cc2nnc3n(C)c(=O)c4ccccc4n23)CC1 [Example 25] | 5 | 3.5 |  |
| CCN(CC)Cc1nnc2n(C)c(=O)c3ccccc3n12 [Example 26] | 3.75 | 1 |  |
| CN1CCN(Cc2nnc3n(C)c(=O)c4ccccc4n23)CC1 [Example 27] |  | 0.8 |  |
| CCn1c(=O)c2ccccc2n2c(CN3CCCCC3)nnc12 [Example 29, 1-piperidinomethyl-4-ethyl[1,2,4]triazolo[4,3-a]quinazolin-5 (4H)-one] | 0.35 | 0.5 |  |
| CCN(CC)Cc1nnc2n(CC)c(=O)c3ccccc3n12 [Example 30] |  | 1 |  |
| O=c1c2ccccc2n2c(CN3CCCCC3)nnc2n1-c1ccccc1 [Example 31] | 0.58 |  |  |
| C=CCn1c(=O)c2ccccc2n2c(CN3CCCCC3)nnc12 [Example 33, 4-allyl-1-piperidinomethyl[1,2,4]triazolo[4,3-a]quinazolin-5(4H)-one] | 0.31 |  |  |
